Consider 3 molecules from US4935529A, “Cytoxic substances from the marine cyanophyte hormothamnion enteromorphoides grunow” (State of Oregon acting by and through the Oregon State …, priority 1989, dated 1990).

A short description of data set [1]: Solubility properties. Particulars: relative to the natural product; in words. Type of data set: physicochemical.
Data set [2] relates to P-388. Kind of data set: Inhibition of cell growth, P-388. Type of data set: cell-based. The procedure:
(§1) Inhibition of Cell Growth and Macromolecule Biosynthesis in -Several
(§2) Cancerous Human Cell Lines by Hormothamnione (1)
(§3) ^a ID50 is the drug concentration required to inhibit cell growt
(§4) to 50% of control levels.
(§5) Macromolecule biosynthesis in the presence of hormothamnion was measured via radioactive precursor incorporation studies using HL-60 and KB cell lines.

Data set [3] relates to HL-60. Kind of data set: Inhibition of cell growth, HL-60. Type of data set: cell-based, human. As for the experimental part: as §1, §2, §3, §4, §5
The subject of data set [4] is DNA synthesis, HL-60. Kind of data set: Inhibition of DNA biosynthesis in HL-60 (3H-thymidine incorporation). Type of data set: cell-based. Particulars: Homo sapiens, 3H-thymidine pulse label, read-out: ID50 DNA. As for the experimental part:
(§6) ^b The percentages of macromolecule biosynthesis inhibition were
(§7) calculated from the specific activities of incorporated precursors (c-e)
(§8) into 10^6 cells in drug treated as versus control cells. ID50
(§9) values were obtained by plotting the logarithmic drug concentrations
(§10) against the percentage inhibition of macromolecule biosynthesis.
(§11) ^c Exponentially growing cells pulse labeled with 1 μCi of ^3
(§12) Hthymidine (16.6 Ci/mmole) per ml of cell suspension.
as §5
In general terms: Uptake of a labelled nucleoside into DNA is a usual measure of proliferation.

Data set [5] concerns RNA synthesis, HL-60. Kind of data set: Inhibition of RNA biosynthesis in HL-60 (5-3H-uridine incorporation). The format is cell-based. Particulars: Homo sapiens, 5-3H-uridine pulse label, read-out: ID50 RNA. The procedure: as §6, §7, §8, §9, §10
(§13) ^d Exponentially growing cells pulse labeled with 2 μCi [5^3
(§14) Huridine (28 Ci/mmole) per ml of cell suspension.
as §5

The subject of data set [6] is Protein synthesis, HL-60. The experiment in a line: Inhibition of protein biosynthesis in HL-60 (3H-L-leucine incorporation). The format is cell-based. The conditions noted are these: Homo sapiens, 3H-L-leucine pulse label, read-out: ID50 Protein. The procedure: as §6, §7, §8, §9, §10
(§15) ^e Exponentially growing cells pulse labeled with 1 μCi of ^3
(§16) HL-leucine (130 Ci/mmole) per ml of cell suspension.
as §5

Data set [7] relates to DNA synthesis, KB. The experiment in a line: Inhibition of DNA biosynthesis in KB (3H-thymidine incorporation). Type of data set: cell-based. Particulars: Homo sapiens, 3H-thymidine pulse label, read-out: ID50 DNA. The procedure: as §6, §7, §8, §9, §10, §11, §12, §5
Data set [8] has as its system RNA synthesis, KB. The experiment in a line: Inhibition of RNA biosynthesis in KB (5-3H-uridine incorporation). The format is cell-based. The conditions noted are these: Homo sapiens, 5-3H-uridine pulse label, read-out: ID50 RNA. The procedure:
as §6, §7, §8, §9, §10, §13, §14, §5

The subject of data set [9] is Protein synthesis, KB. Kind of data set: Inhibition of protein biosynthesis in KB (3H-L-leucine incorporation). The format is cell-based. The conditions noted are these: Homo sapiens, 3H-L-leucine pulse label, read-out: ID50 Protein. The procedure: as §6, §7, §8, §9, §10, §15, §16, §5
The test system of data set [10] is several human cell lines. The experiment in a line: Cytotoxicity / growth inhibition of several human cell lines. Type of data set: cell-based. The conditions noted are these: in words.
Data set [11] concerns RNA synthesis. Kind of data set: Macromolecule biosynthesis: inhibition of RNA synthesis (mode of action). The format is cell-based, human. Particulars: in words. The procedure:
as §6, §7, §8, §9, §10, §13, §14, §5

In data set [12] the test system is Bacillus subtilus. The experiment in a line: Paper disc-agar plate antimicrobial test. The format is cell-based.
The subject of data set [13] is gram positive. Kind of data set: Gram positive antimicrobial activity. Type of data set: cell-based. Particulars: in words.

As usually defined, the zone of inhibition is the extent of the growth-free halo in a diffusion test. A low value points to a weaker effect on the plate.

Values after ≈ are worked out from the molar mass of the structure shown. “Also recorded” adds a separate entry of the source.

As to `COc1c(OC)c(OC(C)=O)c2c(=O)c(C)c(/C=C/c3cc(OC(C)=O)cc(OC(C)=O)c3)oc2c1OC` [derivative (2)], the solubility properties entry in data set [1] was “more favorable”.

Consider `COc1c(OC)c(O)c2c(=O)c(C)c(/C=C/c3cc(O)cc(O)c3)oc2c1OC` [hormothamnion], for which the IC50 in data set [2] (P388, P-388, read-out: ID50 Cell Growth) was 4.6 ng/mL (≈ 0.0115 µM); in [3] (Homo sapiens, read-out: ID50 Cell Growth) it was 0.1 ng/mL (≈ 0.00025 µM); in [4], 0.3 µg/mL (≈ 0.749 µM); in data set [5], 1 ng/mL (≈ 0.0025 µM); in data set [6], > 0.5 µg/mL; in data set [7] it was 0.53 µg/mL (≈ 1.32 µM). In addition, the IC50 in data set [8] was 0.14 µg/mL (≈ 0.35 µM); in data set [9], > 0.5 µg/mL. Also, the “cytotoxic agent to P388 lymphocytic leukemia” value in data set [2] (in words) is reported as “potent”. In data set [3] (in words), the “cytotoxic agent to HL-60 human promyelocytic leukemia” value is “potent”. In addition, the “cytotoxin to several human cancerous cell lines” value in data set [10] was “potent cytotoxin”. The entries for the “inhibition of RNA synthesis (mode of cytotoxic action)” value in [11] and in data set [11] (listed as Hormothamnion) were “appears to operate via inhibition of RNA synthesis; also recorded: A major mode of cytotoxic action of hormothamnion appears to be by inhibition of RNA synthesis” and “selective inhibition of RNA synthesis”, respectively. For the same molecule, in data set [12] (25 μg per 6 mm paper disc), the zone of inhibition at 25 µg/disc turned out to be 8 mm. In [12] (100 μg per 6 mm paper disc), this molecule returned a zone of inhibition at 100 µg/disc of 10 mm. Also, the “gram positive antimicrobial activity” value in data set [13] was “minimal”.

For the molecule `COc1cc(O)c2c(=O)c(C)c(/C=C/c3cc(O)cc(O)c3)oc2c1OC` [compound of formula (3)], the “inhibited the growth of several human cell lines” value in data set [10] is listed as “inhibited the growth of several human cell lines”. Also, in data set [10] (relative to hormothamnion), the “effect on growth compared with hormothamnion” value is listed as “less than observed with hormothamnion”.
